The nature of data set [1]: Solubility (filtration, LC/MS).
Method: To determine whether a compound is soluble in a solution, the solution was filtered on 0.2 μM polytetrafluoroethylene filters (Whatman Inc. Clifton, N.J., USA) and the compound concentration in the filtrate was measured by LC/MS and compared to the expected concentration.
The column used was XTerra MS C18: 50×2.1 mm, 3.5 mm column at 20° C. Samples were injected and separated under the following conditions: The mobile phase “A” consisted of 5 mM ammonium formate, 0.1% formic acid in water and mobile phase “B” consisted of 5 mM ammonium formate, 0.1% formic acid in methanol. […] The Mass Spectrometer system consisted of a Waters ZQ2000 single quadrupole mass spectrometer (Waters, Milford, Mass., USA) equipped with an Electrospray Ionization Source (ES). The mass detector was operated in positive ion mode (ES+) and Selected Ion Recording mode (SIR). Compounds were detected at m/z equal to their respective molecular weight plus 1.
The test system of data set [2] is C33A cervical carcinoma cells. In words: Cell viability by cellular ATP levels (ViaLight), C33A. It is filed as cell-based. To be noted: Homo sapiens. As for the experimental part:
(§1) One day after plating, the cells were treated with various concentrations of Compound 1 Tartrate. Stock solutions of the Compound 1 Tartrate were prepared in dimethyl sulfoxide (Sigma-Aldrich Inc., St. Louis, Mo., USA), diluted in the recommended media and then added to the cells. The total dimethyl sulfoxide on the cells was 1%. […] The results were plotted relative to untreated control cells, which were set at a value of 100.
(§2) As depicted in Table 4, these compounds were efficient in decreasing cellular ATP levels in H1299 and C33A cancer cell lines. […], these compounds are believed to have utility in the in vivo methods of the invention, i.e., treatment and prevention of cancer and viral infections, respectively. It should be noted that, although this cell-based assay is believed to be indicative of anti-oncogenic activity in vivo, it is not the only useful assay for evaluating the anti-oncogenic activity of Triheterocyclic Compounds of the invention. In addition, the anti-viral and other biological activity of compounds of the invention can be determined and evaluated in other assay systems known to the skilled artisan.

For data set [3], the system named is ADR-RES human breast cancer cell line. As to the kind of experiment: Cell viability by cellular ATP levels (ViaLight), NCI/ADR-RES. It is filed as cell-based. To be noted: Breast (multi-drug resistant), ATP levels 72 h post-treatment, read-out: IC50 of Compound 1 tartrate. As for the experimental part:
as §1

Data set [4] deals with H1299 human non-small cell lung cancer cells. In words: Cell viability by cellular ATP levels (ViaLight), H1299. It is filed as cell-based. As for the experimental part:
as §1, §2

The subject of data set [5] is PC-3 human prostatic carcinoma cell line. As to the kind of experiment: Cell viability by cellular ATP levels (ViaLight), PC-3. It is filed as cell-based. To be noted: PC-3, Prostate, ATP levels 72 h post-treatment, read-out: IC50 of Compound 1 tartrate. As for the experimental part: as §1
Data set [6] relates to H460 non-small cell lung cancer cell line. In words: Cell viability by cellular ATP levels (ViaLight), H460. It is filed as cell-based. The conditions noted are these: Homo sapiens, NCI-H460; H460, NSCLC; ATP levels 72 h post-treatment; read-out: IC50 of Compound 1 tartrate. As for the experimental part:
as §1

Data set [7] relates to cancer cell lines H1299 and C33A; normal cell lines HMEC and MRC-5. In words: Cellular ATP levels, cancer cell lines compared with normal cell lines. It is filed as cell-based. As for the experimental part: as §1
The subject of data set [8] is B16-F1 mouse melanoma cell line. In words: Cell viability by cellular ATP levels (ViaLight), B16-F1. It is filed as cell-based. To be noted: B16-F1, Murine Melanoma, ATP levels 72 h post-treatment, read-out: IC50 of Compound 1 tartrate. As for the experimental part:
as §1

For data set [9], the system named is SW-480 human adenocarcinoma cell line. In words: Cell viability by cellular ATP levels (ViaLight), SW-480. It is filed as cell-based. The conditions noted are these: SW480, SW-480, Colorectal, ATP levels 72 h post-treatment, read-out: IC50 of Compound 1 tartrate. As for the experimental part:
as §1

The subject of data set [10] is C33A human cervical cancer cells. As to the kind of experiment: Growth of C33A cervical tumors in SCID mice. It is filed as in vivo, CB17 SCID/SCID mice. The conditions noted are these: 4.5 mg/kg IV once a day for five days (FIG. 3). As for the experimental part:
Viability was examined by staining with trypan blue (Gibco, NY, USA) and only flasks with cell viability greater than 95% were used for in vivo studies.
(§3) There were three treatment groups of ten mice each: (a) a negative control group, (b) a positive control group and (c) a group treated with Compound 1 Tartrate.
(§4) Treatments started on day fourteen after C33A cells transplantation. Compound 1 Tartrate was administered IV once daily for five consecutive days at a dose of 4.5 mg/kg. Compound 1 Tartrate was prepared fresh daily in a vehicle solution of 5% Dextrose (Abbot Laboratories, QC, Canada) and 2% polysorbate 20 (Sigma, St. Louis, Mo., USA). The negative control group was treated with vehicle alone. The injection volume for both Compound 1 Tartrate group and the negative control group was 150 μl.
(§5) Observation continued for 40 days after initial tumor implantation.

Data set [11] concerns MCF-7 human breast cancer cell line. As to the kind of experiment: Cell viability by cellular ATP levels (ViaLight), MCF-7. It is filed as cell-based. The conditions noted are these: MCF7, MCF-7, Breast, ATP levels 72 h post-treatment, read-out: IC50 of Compound 1 tartrate. As for the experimental part:
as §1

Data set [12] has as its system OVCAR-3 human ovarian carcinoma cell line. In words: Cell viability by cellular ATP levels (ViaLight), OVCAR-3. To be noted: OVCAR-3, Ovary, ATP levels 72 h post-treatment, read-out: IC50 of Compound 1 tartrate. It is filed as cell-based. As for the experimental part:
as §1

Data set [13] has as its system HMEC normal mammary epithelial cells. As to the kind of experiment: Cell viability by cellular ATP levels (ViaLight), HMEC. The conditions noted are these: Homo sapiens, Normal Breast, ATP levels 72 h post-treatment, read-out: IC50 of Compound 1 tartrate. It is filed as cell-based. As for the experimental part:
as §1

The subject of data set [14] is A549 human lung carcinoma cell line. As to the kind of experiment: Cell viability by cellular ATP levels (ViaLight), A549. It is filed as cell-based. The conditions noted are these: A549, NSCLC, ATP levels 72 h post-treatment, read-out: IC50 of Compound 1 tartrate. As for the experimental part:
as §1

Data set [15] concerns the target T1, calf intestinal alkaline phosphatase (Bos taurus, UniProt P19111).
T1 construct: purchased Roche Diagnostic Inc
In words: Conversion of phosphate pro-drug by calf intestinal alkaline phosphatase. To be noted: 15 μM, 0.02 U/100 μL enzyme, pH 7.4, up to 120 minutes (FIG. 5). It is filed as in vitro ADME. As for the experimental part: (§6) The conversion into biologically active drug of phosphate pro-drugs by calf intestinal alkaline phosphatase and human placental alkaline phosphatase was measured in vitro using purified enzymes. Purified calf intestinal alkaline phosphatase (Roche Diagnostic Inc. Laval, Quebec, Canada) or human placental alkaline phosphatase (Sigma-Aldrich Canada Ltd. Oakville, Ontario, Canada) was added at a concentration of 0.02 U/100 μL to a solution containing 15 μM of Compound 66, 20 mM Tris-HCl, pH 7.4 and 0.9% NaCl. The solutions were incubated for 30, 60 or 120 minutes. A solution containing 15 μM of Compound 66, 20 mM Tris-HCl, pH 7.4 and 0.9% NaCl was used as a reference (time=0 minutes). To each solution, an equal volume (100 μL) of ice-cold acetonitrile was added, and then the mixture was vortexed and transferred to glass vials. A standard concentration curve of the pro-drug and the drug was prepared in 10 mM Tris-HCl, pH 7.4, 0.45% NaCl and 50% acetonitrile. All samples were immediately analyzed by LC/MS.

Data set [16] has as its target T2, human placental alkaline phosphatase (Homo sapiens, UniProt P05187).
T2 construct: purchased Sigma-Aldrich Canada Ltd
In words: Conversion of phosphate pro-drug by human placental alkaline phosphatase. To be noted: 15 μM, 0.02 U/100 μL enzyme, pH 7.4, up to 120 minutes (FIG. 4). It is filed as in vitro ADME. As for the experimental part:
as §6

Data set [17] concerns human prostatic adenocarcinoma cancer PC3 cells. As to the kind of experiment: Growth of PC3 prostatic tumors in SCID mice. The conditions noted are these: 5 consecutive intravenous injections; Compound 1 Mesylate Salt 4.84 μMoles/Kg; Compound 66 4.84 or 14.51 μMoles/Kg (FIG. 6). It is filed as in vivo. As for the experimental part: The human prostatic adenocarcinoma cancer PC3 cells were purchased from the American Type Culture Collection (ATCC). These cells were confirmed to be free of mycoplasma infection. Cells were maintained in the Roswell Park Memorial Institute (RPMI), supplemented with 10% inactivated fetal bovine serum and 1% penicillin-streptomycin-L-Glutamine, under 5% carbon dioxide (CO2) at 37° C. For prostatic-tumor induction, cells were grown lower than 70% confluence in complete medium and then collected with trypsin (Bio Whittaker, Rockland, Me., USA). Cells were then centrifuged and washed 2 times in phosphate buffer solution (PBS) and resuspended in PBS at 1.5×10^6 cells/0.1 mL. PC3 cells were then transplanted subcutaneously into the flank of SCID mice (Charles River Laboratories, Wilmington, Mass., USA), as a suspension of tumor cells (1.5×10^6 cells in 100 μL PBS), under a laminar airflow hood. Eleven (11) days later, the size of each tumor was measured. […] Relative tumor size and volume was calculated as follows: length (cm)×[width (cm)]^2/2. […]

A short description of data set [18]: Shelf stability (precipitation) of formulated compound. It is filed as physicochemical. To be noted: 72 hours after preparation; 0.6 mg/mL in 9.6% polyethylene glycol 300, 0.4% polysorbate 20 and 5% dextrose. As for the experimental part:
Compound 1 Tartrate salt solubility is equal to 0.1 mg/mL. […] This increase in solubility has a positive impact on the shelf stability of formulated Compound 1.

Data set [19] is described as follows: Body weight and deaths of SCID mice bearing C33A tumors. It is filed as in vivo, CB17 SCID/SCID mice. The conditions noted are these: cisplatin 4 mg/kg IP; days 29 and 32, group of ten mice. As for the experimental part:
as §3, §4, §5

The mark [20] stands for this setting: C-33-A, read-out: IC50 (μM) C33A, Effect on Cancer Cells Viability.
[21] abbreviates: NCI-H1299, read-out: IC50 (μM) H1299, Effect on Cancer Cells Viability.
Where [22] appears, read: C-33-A, C33A, cellular ATP levels as in Example 2, read-out: IC50 (μM) C33A, Effect on Cancer Cells Viability.
Setting [23] is: NCI-H1299, H1299, cellular ATP levels as in Example 2, read-out: IC50 (μM) H1299, Effect on Cancer Cells Viability.

Where a name gives a salt, the structure may show the parent alone. Read-outs that look alike come from different tables or passages of the source.

T2 sequence (P05187 23-506): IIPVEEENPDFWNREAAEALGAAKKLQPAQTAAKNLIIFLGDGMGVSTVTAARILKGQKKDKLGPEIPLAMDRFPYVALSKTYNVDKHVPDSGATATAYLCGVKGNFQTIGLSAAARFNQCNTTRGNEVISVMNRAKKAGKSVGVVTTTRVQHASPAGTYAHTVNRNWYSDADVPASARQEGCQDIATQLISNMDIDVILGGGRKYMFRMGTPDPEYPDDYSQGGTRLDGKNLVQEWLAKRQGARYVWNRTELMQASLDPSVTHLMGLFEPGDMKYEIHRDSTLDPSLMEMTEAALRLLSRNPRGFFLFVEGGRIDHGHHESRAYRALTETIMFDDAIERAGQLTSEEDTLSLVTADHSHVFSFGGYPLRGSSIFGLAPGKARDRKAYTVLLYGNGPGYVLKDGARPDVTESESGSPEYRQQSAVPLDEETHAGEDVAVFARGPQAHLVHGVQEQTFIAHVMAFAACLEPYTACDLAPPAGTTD
T1 sequence (P19111 20-506): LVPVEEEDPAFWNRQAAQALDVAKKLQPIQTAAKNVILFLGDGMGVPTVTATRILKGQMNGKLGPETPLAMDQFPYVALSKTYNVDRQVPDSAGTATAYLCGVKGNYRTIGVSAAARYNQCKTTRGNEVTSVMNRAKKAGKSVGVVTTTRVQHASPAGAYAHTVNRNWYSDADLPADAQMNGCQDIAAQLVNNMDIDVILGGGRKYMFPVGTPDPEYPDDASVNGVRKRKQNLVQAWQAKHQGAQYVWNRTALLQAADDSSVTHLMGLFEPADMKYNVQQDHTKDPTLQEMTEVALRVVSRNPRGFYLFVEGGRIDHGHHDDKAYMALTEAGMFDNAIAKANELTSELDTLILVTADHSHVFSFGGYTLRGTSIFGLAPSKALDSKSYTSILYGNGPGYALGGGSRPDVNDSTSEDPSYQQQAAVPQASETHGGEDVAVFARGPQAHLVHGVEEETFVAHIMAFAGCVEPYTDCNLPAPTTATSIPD

Take `COC1=CC(c2cc3ccccc3[nH]2)=N/C1=C\c1[nH]c(C)cc1C` [Compound 1]: the “Solubility in water (in words)” value in data set [1] (water) is on record as “poorly soluble in water”.

As to `COC1=CC(c2cc3ccccc3[nH]2)=N/C1=C\c1[nH]c(C)cc1C` [Compound 1 tartrate], the IC50 in data set [2] (C-33A, Cervix, ATP levels 72 h post-treatment compared to untreated cells, read-out: IC50 of Compound 1 tartrate) stood at 0.2 µM; in [3], 0.4 µM; in [4] (NCI-H1299, H1299, NSCLC, ATP levels 72 h post-treatment, read-out: IC50 of Compound 1 tartrate) it was 0.5 µM; in [5], 0.2 µM; in data set [6] it was 0.3 µM; in data set [8], 0.06 µM. For the same compound, the IC50 in data set [9] came to 0.2 µM; in data set [11], 0.6 µM; in data set [12], 0.2 µM; in data set [13] it was 4 µM; in data set [14], 0.4 µM. The “Lowering of ATP levels in cancer cell lines H1299 and C33A compared with normal cell lines HMEC and MRC-5” value in data set [7] (0.5 μM, 72 hours after treatment (FIG. 1)) was “significantly more effective at lowering ATP levels”. In addition, the “Efficacy in decreasing cellular ATP levels, cancer cell lines versus HMEC” value in data set [7] (various concentrations, ten cancer cell lines versus HMEC normal mammary epithelial cell line) was “greater efficacy in decreasing cellular ATP levels in the cancer cell lines”. Further, the “Reduction in tumor growth compared to vehicle” value in [10] is reported as “statistically significant (p<0.0001) reduction in tumor growth”.

With `CCOC(=O)COC1=CC(c2cc3ccccc3[nH]2)=N/C1=C\c1[nH]c(C)cc1C` [Compound 53], the IC50 in [2] (setting [20]) is 10.2 µM; in data set [4] (setting [21]), 10.6 µM.

For the compound `COC(=O)CCc1c(C)[nH]c(/C=C2/N=C(c3cc4ccccc4[nH]3)C=C2OC)c1C` [Compound 63], the figures for the IC50 in [2] (setting [20]) and in data set [4] (setting [21]) were 0.548 µM and 0.753 µM, respectively.

`COc1ccc(NC2=CC(c3cc4ccccc4[nH]3)=N/C2=C\c2[nH]c(C)cc2C)cc1` [Compound 61]: the values for the IC50 in data set [2] (setting [22]) and in data set [4] (setting [23]) were 0.93 µM and 1.11 µM, respectively.

Regarding `COC1=CC(c2cc3ccccc3n2C(=O)CC(C)(C)c2c(C)cccc2OP(=O)(O)O)=N/C1=C/c1[nH]c(C)cc1C` [Compound 66], the “Conversion of pro-drug into Compound 1” value in data set [15] and in [16] was “convert a fraction of the pro-drug” throughout. In addition, the “Solubility, fold greater than Compound 1 Tartrate” value in [1] worked out at 100 fold. In addition, in data set [17], the “Growth of prostatic tumors in mice” value is “significantly reduce the growth of prostatic tumors”.

For the compound `COC1=CC(c2cc3ccccc3[nH]2)=N/C1=C\c1[nH]c(C)cc1C` [Compound 1 Mesylate Salt], in [18], the “Precipitation of the formulation” value was “no evidence of precipitation”. Also, the “Growth of prostatic tumors in mice” value in data set [17] is “significantly reduce the growth of prostatic tumors”.

In the case of `N.N.[Cl][Pt][Cl]` [cisplatin], the Deaths entry in data set [19] is listed as “Two mice died”.

In the case of `COC1=CC(c2cc3ccccc3n2C(=O)Nc2ccc(N(C)C)cc2)=N/C1=C/c1[nH]c(C)cc1C` [Compound 52], the IC50 turned out to be 1.11 µM in data set [2] (setting [22]) and 1.04 µM in [4] (setting [23]).

As usually defined, the IC50 is the concentration needed to halve the response being measured.

For the origin of these results see US20080076739A1, “Methods for treating arthritis using triheterocyclic compounds” (Gemin X Biotechnologies Inc., priority 2005, published 2008).
